Measurements from US20100130515A1, “Polymorphs and solvates of a pharmaceutical and method of making” (BIOGEN IDEC INC., priority 2007, published 2010).

Key:
[1] = Relative stability of forms A and B by vapour diffusion experiment (XRPD); assay type: physicochemical; details: NMP vapour, room temperature; for relative stability of the polymorphs: intimate mixture of forms A and B, followed by XRPD
Method: The relative stabilities of the forms A and B was determined by a vapour diffusion experiment. Approximately equal amounts of the two forms were ground together to produce an intimate mixture. The mixture was packed into a silicon 510-cut recessed wafer XRPD holder and the XRPD of the mixture determined. The holder was then placed in a covered dish containing NMP (a known solvent 1) at room temperature. The mixture was re-examined from time to time to monitor any changes in the XRPD pattern.
The traces from bottom to top in FIG. 8 were recorded initially, at 24 hours, at 3 days, at 1 week, at 10 days, and at 23 days; the topmost traces are a form A reference and a form B reference.

[2] = Relative stability of forms D and H by vapour diffusion experiment (XRPD); assay type: physicochemical; details: inferred from the higher desolvation temperature, XRPD results inconclusive
Source text: The relative stabilities of Forms D and H was investigated by a vapour diffusion experiment. Approximately equal amounts of the two forms were combined to produce an intimate mixture. The mixture was packed into a silicon XRPD holder and the XRPD of the mixture determined. The holder was then placed in a covered dish containing THF:NMP approx. 90:10 v/v at room temperature. The mixture was re-examined from time to time to monitor any changes in the XRPD pattern.
There was been no significant change in the XRPD traces over 12 days.

[3] = system: cataleptic responses; details: cited from earlier work
[4] = system: Parkinsonian patients; details: cited from earlier work

Question: With `Cc1cc(Cn2nnc3c(-c4ccco4)nc(N)nc32)ccc1N` [Form A, 3-(4-amino-3-methylbenzyl)-7-(furan-2-yl)-3H-[1,2,3]triazolo[4,5-d]pyrimidin-5-amine] as the compound, how does the “relative stability of the polymorphs” value [1] read?
Answer: more stable polymorph

Question: And the “relative stability of the polymorphs” value ([1]; listed as form A)?
Answer: more thermodynamically more stable

Question: With `Cc1cc(Cn2nnc3c(-c4ccco4)nc(N)nc32)ccc1N` [Form B, 3-(4-amino-3-methylbenzyl)-7-(furan-2-yl)-3H-[1,2,3]triazolo[4,5-d]pyrimidin-5-amine] as the compound, how does the “time point by which the XRPD peaks characteristic of Form B disappear completely” value ([1]; mixture of forms A and B) read?
Answer: ≤ 23 days

Question: With `Cc1cc(Cn2nnc3c(-c4ccco4)nc(N)nc32)ccc1N` [Form H, 3-(4-amino-3-methylbenzyl)-7-(furan-2-yl)-3H-[1,2,3]triazolo[4,5-d]pyrimidin-5-amine] as the compound, how does the “relative stability of the THF solvates” value [2] read?
Answer: more likely to be the stable form

Question: Which results are given for `CCCn1c(=O)c2c(nc(/C=C/c3ccc(OC)c(OC)c3)n2C)n(CCC)c1=O` [KF 17837, E-8-(3,4dimethoxystyryl)-1,3-dipropyl-7-methylxanthine]?
Answer: anticataleptic effects of a subthreshold dose of L-DOPA plus benserazide ([3]; in vivo): potentiated; catalepsy induced by haloperidol and reserpine ([3]; in vivo): reduced; cataleptic responses induced by intracerebroventricular CGS 21680 ([3]; oral administration): significantly ameliorated

Question: What does the source list for `Cn1c(=O)c2[nH]cnc2n(C)c1=O` [theophylline, 1,3-dimethylxanthine]?
Answer: mean objective disability scores ([4]; 15 Parkinsonian patients, up to 12 weeks, 150 mg/day): significant improvements; patients reporting moderate or marked subjective improvement ([4]; of 15 Parkinsonian patients, up to 12 weeks, 150 mg/day): 11; serum theophylline levels ([4]; slow release oral preparation 150 mg/day, after one week): 4.44 mg/L
